Test results taken from patent publication US20230339915A1 (Vertex Pharmaceuticals Incorporated, priority 2020, published 2023).

Experiments:
[1] = molecular target: NL20 human bronchial epithelial cells expressing human Z-AAT (Homo sapiens (Human), UniProt P01009, E366K); test: AAT Function Assay (MSD Assay NL20-SI Cell Line); format: cell-based; conditions: functionally active AAT (AAT-hNE complex, MSD) in supernatant of NL20 cells expressing human Z-AAT; read-out: NL20 Functional EC50
Procedure: A. AAT Function Assay (MSD Assay NL20-SI Cell Line)
Alpha-1 antitrypsin (AAT) is a SERpIN (serine protease inhibitor) that inactivates enzymes by binding to them covalently. This assay measured the amount of functionally active AAT in a sample in the presence of the disclosed Compounds 1-227 by determining the ability of AAT to form an irreversible complex with human neutrophil Elastase (hNE). In practice, the sample (cell supernatant, blood sample, or other) was incubated with excess hNE to allow AAT-Elastase complex to be formed with all functional AAT in the sample. This complex was then captured to a microplate coated with an anti-AAT antibody. The complex captured to the plate was detected with a labeled anti-Elastase antibody and quantitated using a set of AAT standards spanning the concentration range present in the sample. Meso Scale Discovery (MSD) plate reader, Sulfo-tag labeling, and microplates were used to provide high sensitivity and wide dynamic range.
Instrument(S): • Meso Sector S600 • Bravo • Washer dispenser • Multidrop Combi
Day 1 Cell Culture • 1. Harvest NL20 human bronchial epithelial cells expressing human Z-AAT in OptiMEM™ containing Pen/Strep (P/S) • 2. Seed at 16,000 cells/well in 30 μL (384 well plate) • 3. Centrifuge plates briefly up to speed (1200 rpm) and place into 37° C. incubator overnight
Day 2: Compound Addition and Coating Plates with Capture Antibody
Compound Addition: • 1. Dispense 40 μL of OptiMEM™ (P/S) with doxycycline (1:1000 stock=0.1 μM final) to each well of the compound plate using a multidrop Combi in hood • 2. Remove cell plate from incubator, flip/blot and take immediately to Bravo to transfer compounds • 3. Return plates to incubator overnight
Coat MSD Plates • 1. Dilute capture antibody (Polyclonal Goat anti-AAT) to 5 μg/mL (1:200) in PBS (no BSA). • 2. Dispense 25 μL of diluted capture antibody into all wells of MSD 384-well High Bind plate using the Multidrop equipped with a standard cassette. • 3. Incubate overnight at 4° C.
Prepare Blocker A (BSA) Solutions • 1. Prepare solution of 5% MSD Blocker A (BSA) following the manufacturer's instructions. • 2. Further dilute the 5% MSD Blocker A in PBS to 1% (Blocker A) as needed.
Block Plates • 1. Wash plate 1× with 50 μL Wash buffer (PBS+0.5% Tween 20), and adds 35 μL 5% Block A buffer to block non-specific binding on washer dispenser • 2. Rotate plates on shaker for 1 hour at 600 rpm
Prepare M-AA T Standards • 1. Dilute M-AAT stock to 1.6 μg/mL in 1% BSA Blocker A (Stock in −70° C.); then prepare 12×1:2 serial dilutions in 1% Blocker A • 2. The top starting final concentration on MSD plate is 320 ng/mL. These dilutions correspond to a final concentration of 320, 160, 80, 40, 20, 10, 5, 2.5, 1.25, 0.625, 0.312, 0.156 ng/mL.
Dilution Plate • 1. Add 80 μL of 1% Assay buffer to all wells except columns 1/24 (standards) with Multidrop Combi • 2. Add diluted standards to columns 1 and 24 • 3. Centrifuge dilution plates 1200 rpm briefly
Cell Plate • 1. Aspirate columns which will have the standards from the cell plates in the hood using 16-pin aspirator
Prepare Human Neutrophil Elastase (hNE) • 1. Prepare 1 μg/mL Human Neutrophil Elastase by diluting in 1% Blocker A. • a. Small 100 μg vial—add 1 mL PBS (100 μg/mL) • i. This can then be diluted 1:100 in 1% Assay Buffer for a final 1 μg/mL concentration
MSD—add hNE (20 μL/well) • 1. After the MSD plate has blocked for at least 1 hour, wash plate 1× with 50 μL Wash buffer (PBS+0.5% Tween 20) and then add 20 μL hNE to each well
Bravo—Cell Plate—Dilution Plate—MSD Plate
Using the Bravo aspirate 10 μL from the cell plate, transfer to the dilution plate (9-fold dilution) • 1. Mix 25 μL 3×, then aspirate 5 μL, transfer to MSD plate (5-fold dilution) • 2. Mix 10 μL 3×. Total dilution is 45 fold. • 3. Shake plates at 600 rpm for 1.5 hours
Add Functional Detection hNE Antibody • 1. Wash plate 1× with wash buffer • 2. […]

[2] = molecular target: purified Z-AAT protein from human plasma (Homo sapiens (Human), UniProt P01009, E366K); test: Biochemical Assay (Z-AAT Elastase Activity Assay); conditions: purified Z-AAT pre-incubated with compound 1 hour, then human neutrophil elastase and fluorescent substrate
Chain of purified Z-AAT protein from human plasma (P01009 25-418 E366K limits assumed): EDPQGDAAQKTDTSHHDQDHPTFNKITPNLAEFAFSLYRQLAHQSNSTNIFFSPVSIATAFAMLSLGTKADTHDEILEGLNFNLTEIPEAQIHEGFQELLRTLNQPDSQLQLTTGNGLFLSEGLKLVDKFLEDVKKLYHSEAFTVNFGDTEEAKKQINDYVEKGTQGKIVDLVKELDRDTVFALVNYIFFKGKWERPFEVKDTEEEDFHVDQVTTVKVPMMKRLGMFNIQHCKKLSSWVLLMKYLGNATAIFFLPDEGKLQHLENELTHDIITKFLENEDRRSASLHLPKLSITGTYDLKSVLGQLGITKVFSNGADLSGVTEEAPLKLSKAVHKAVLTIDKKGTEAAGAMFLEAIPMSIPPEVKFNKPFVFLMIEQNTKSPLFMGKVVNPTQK
Excerpt: B. Biochemical Assay (Z-AAT Elastase Activity Assay)
This assay measured the modulation of Compounds 1-227 on Z-AAT SERpIN activity using purified Z-AAT protein and purified human neutrophil elastase (hNE). Normally, when active monomeric Z-AAT encounters a protease such as trypsin or elastase, it forms a 1:1 covalent “suicide” complex in which both the AAT and protease are irreversibly inactivated. However, compounds binding to Z-AAT can lead to a decrease in SERpIN activity. In such cases, when a protease encounters compound-bound Z-AAT, the protease cleaves and inactivates Z-AAT without itself being inactivated.
Reagents • PBS buffer (media prep)+0.01% BRIJ35 detergent (Calbiochem catalog #203728) Opti-MEM media (Fisher 11058-021) • Human neutrophil elastase (hNE, Athens Research #16-14-051200) • 3.4 μM stock (0.1 mg/mL) prepared in 50 mM Na Acetate, pH 5.5, 150 mM NaCl, stored at −80° C. • Elastase substrate V (ES V, fluorescent peptide substrate MeOSuc-Ala-Ala-Pro-Val-AMC, Calbiochem catalog #324740) • 20 mM stock in DMSO, stored at −20° C. • Purified Z-AAT protein from human plasma; • 12.9 μM (0.67 mg/mL) Z-AAT Vertex Cambridge Sample 4942, from patient • #061-SSN, stored at −80 C
Plates • Corning 4511 (384 well black low volume)
Instruments • PerkinElmer® EnVision™
Pre-Incubation of Z-AAT with Compounds • 1. 7.5 μL of Z-AAT (20 nM) was incubated with compounds 1-227 in a GCA plate for 1 hour at room temperature
Addition of hNE • 1. 7.5 ul of HNE solution (3 nM in PBS+0.01% BRIJ35) added into GCA plate • 2. Incubate plate for 30 minutes to allow Z-AAT/HNE suicide complex formation.
Addition of Substrate and Read Plate on PE Envision • 1. 7.5 μL of substrate (300 μM solution of elastase substrate (ES V) in PBS+0.01% BRIJ35) dispensed per well into GCA plate • 2. Immediately read on Envision.

Chain of NL20 human bronchial epithelial cells expressing human Z-AAT (P01009 25-418 E366K limits assumed): as above

Cc1cc(-n2c(C3CCS(=O)(=O)CC3)c(C[C@H]3CC[C@H](C(=O)O)CC3)c3cc(O)ccc32)ccc1F [Compound 44]
EC50 [1]: > 2000 nM | IC50 [2]: > 30000 nM

O=C(O)[C@H]1C[C@H](c2c(C3CCOCC3)n(-c3ccc(F)cc3)c3ccc(O)cc32)C1 [Compound 45]
EC50 [1]: > 2000 nM | IC50 [2]: > 30000 nM

O=C(O)[C@H]1C[C@@H](c2c(C3CCOCC3)n(-c3ccc(F)cc3)c3ccc(O)cc32)C1 [Compound 46]
EC50 [1]: > 2000 nM | IC50 [2]: > 30000 nM

Cc1cc(-n2c(C3CCS(=O)(=O)CC3)c(C3CC4(CC(C(=O)O)C4)C3)c3cc(O)ccc32)ccc1F (stereo not drawn) [Compound 47]
EC50 [1]: > 2000 nM | IC50 [2]: > 30000 nM

C[C@]1(C(=O)O)C[C@H](c2c(C3CCOCC3)n(-c3ccc(F)cc3)c3ccc(O)cc32)C1 [Compound 48]
EC50 [1]: > 2000 nM | IC50 [2]: > 30000 nM

C[C@]1(C(=O)O)C[C@@H](c2c(C3CCOCC3)n(-c3ccc(F)cc3)c3ccc(O)cc32)C1 [Compound 49]
EC50 [1]: > 2000 nM | IC50 [2]: > 30000 nM

O=C(O)[C@H]1CC2(C1)C[C@H](c1c(C3CCOCC3)n(-c3ccc(F)cc3)c3ccc(O)cc31)C2 (stereo partly drawn) [Compound 50]
EC50 [1]: 500 to 2000 nM | IC50 [2]: > 30000 nM

O=C(O)[C@H]1CC2(C1)C[C@H](c1c(C3CCOCC3)n(-c3ccc(F)cc3)c3ccc(O)cc31)C2 (stereo partly drawn) [Compound 51]
EC50 [1]: 500 to 2000 nM | IC50 [2]: > 30000 nM

C[C@]1(C(=O)O)C[C@@H](c2c(C3CCOCC3)n(-c3ccccc3)c3ccc(O)cc32)C1 [Compound 52]
EC50 [1]: > 2000 nM | IC50 [2]: > 30000 nM

O=C(O)[C@]1(C(F)(F)F)C[C@@H](c2c(C3CCOCC3)n(-c3ccc(F)c(F)c3)c3ccc(O)cc32)C1 [Compound 53]
EC50 [1]: > 2000 nM | IC50 [2]: > 30000 nM

O=C(O)C1CC2(C1)CC(c1c(C3CCOCC3)n(-c3ccccc3)c3ccc(O)cc13)C2 (stereo not drawn) [Compound 54]
EC50 [1]: > 2000 nM | IC50 [2]: > 30000 nM

Cc1cc(-n2c(C3CCOCC3)c([C@H]3CC[C@@H](C(=O)O)CC3)c3cc(O)ccc32)ccc1F [Compound 55]
EC50 [1]: > 2000 nM | IC50 [2]: > 30000 nM

Cc1cc(-n2c(C3CCOCC3)c([C@H]3CC[C@H](C(=O)O)CC3)c3cc(O)ccc32)ccc1F [Compound 56]
EC50 [1]: 500 to 2000 nM | IC50 [2]: > 30000 nM

CC(C)c1c([C@H]2CC3(C[C@H](C(=O)O)C3)C2)c2cc(O)ccc2n1-c1ccc(F)c(F)c1 (stereo partly drawn) [Compound 57]
EC50 [1]: < 500 nM | IC50 [2]: < 2000 nM

CC(C)c1c([C@H]2CC3(C[C@H](C(=O)O)C3)C2)c2cc(O)ccc2n1-c1ccc(F)c(F)c1 (stereo partly drawn) [Compound 58]
EC50 [1]: 500 to 2000 nM | IC50 [2]: 2000 to 5000 nM

Cc1cc(-n2c(C(C)C)c(CCC(F)(F)C(=O)O)c3cc(O)ccc32)ccc1F [Compound 59]
EC50 [1]: > 2000 nM | IC50 [2]: > 5000 nM

Cc1cc(-n2c(C(C)C)c([C@H]3C[C@@](C(=O)O)(C(F)(F)F)C3)c3cc(O)ccc32)ccc1F [Compound 60]
EC50 [1]: < 500 nM | IC50 [2]: > 5000 nM

Cc1cc(-n2c(C(C)C)c([C@H]3C[C@](C(=O)O)(C(F)(F)F)C3)c3cc(O)ccc32)ccc1F [Compound 61]
EC50 [1]: 500 to 2000 nM | IC50 [2]: > 5000 nM

Cc1cc(-n2c(C(C)C)c(CCC(C)(C)C(=O)O)c3cc(O)ccc32)ccc1F [Compound 62]
EC50 [1]: 500 to 2000 nM | IC50 [2]: > 30000 nM

Cc1cc(-n2c(C(C)C)c([C@H]3C[C@@H](CC(=O)O)C3)c3cc(O)ccc32)ccc1F [Compound 63]
EC50 [1]: 500 to 2000 nM | IC50 [2]: > 5000 nM

Cc1cc(-n2c(C(C)C)c(C3CCOC(C(=O)O)C3)c3cc(O)ccc32)ccc1F (stereo not drawn) [Compound 64]
EC50 [1]: > 2000 nM | IC50 [2]: > 30000 nM

Cc1cc(-n2c(C(C)C)c(C3CCOC(C(=O)O)C3)c3cc(O)ccc32)ccc1F (stereo not drawn) [Compound 65]
EC50 [1]: > 2000 nM | IC50 [2]: > 30000 nM

CO[C@]1(C(=O)O)C[C@H](c2c(C(C)C)n(-c3ccc(F)c(C)c3)c3ccc(O)cc32)C1 [Compound 66]
EC50 [1]: 500 to 2000 nM | IC50 [2]: > 30000 nM

CO[C@]1(C(=O)O)C[C@@H](c2c(C(C)C)n(-c3ccc(F)c(C)c3)c3ccc(O)cc32)C1 [Compound 67]
EC50 [1]: > 2000 nM | IC50 [2]: > 30000 nM
